Data on 22 molecules can be found in patent US4634663A, “Method and reagent for quantitative determination of N-acetylhexosamine” (Noda Institute for Scientific Research, priority 1983, dated 1987).

What all share (format): biochemical, Pseudomonas sp. No. 15-1
Data set [1] concerns N-acetylhexosamine oxidase. Put plainly: Activity inhibition of the enzyme by metallic ions or inhibitors.
Data set [2] relates to N-acetylhexosamine oxidase. Described as above. Particulars: for Residual activity (%): tris-hydrochloric acid buffer solution of pH 7.5, 1.8mM metallic ion or inhibitor; for Inhibition of enzyme activity (in words): tris-hydrochloric acid buffer pH 7.5, 1.8mM. On the procedure:
The activity of the present enzyme was measured in various solutions each comprising a tris-hydrochloric acid buffer solution of pH 7.5 and 1.8mM metallic ion or inhibitor.

Data set [3] relates to N-acetylhexosamine oxidase. Nature of the data set: Action and specificity for substrate. To be noted: in the presence of oxygen. From the text: As shown in the following reaction formula, the present enzyme oxidizes N-acetylhexosamine in the presence of oxygen to form N-acetylhexosaminic acid and hydrogen peroxide.
The subject of data set [4] is N-acetylhexosamine oxidase. Nature of the data set: Activity stabilization by bovine serum albumin during heat treatment. To be noted: 1 mg/ml bovine serum albumin, potassium phosphate buffer pH 6.8, 10 minutes heat treatment.
Experimental: Further, in 10 minutes heat treatment at 45° C., the present enzyme is stable between pH 3 and pH 9 and loses its activity rapidly at a more acidic region and slowly at a more alkaline region. In this experiment, the hydrogen peroxide method was adopted, and the residual activity of the present enzyme subjected to 10 minutes heat treatment in a potassium phosphate buffer solution of pH 6.8 at each temperature was compared with the residual activity of the same enzyme subjected to the same treatment in a potassium phosphate buffer solution of pH 6.8 containing 1 mg/ml of bovine serum albumin.

Turning to `Oc1cccc2cccnc12` [8-Hydroxyquinoline], the “Residual activity (%)” value in data set [1] (pH 7.5) stood at 102%.

In the case of `O=[N+]([O-])[O-].[Ag+]` [AgNO3], the “Residual activity (%)” value in data set [1] (Phosphate buffer solution, 1.8mM) is 5%.

With `[Ca+2].[Cl-].[Cl-]` [CaCl2], the “Residual activity (%)” value in data set [2] amounted to 91%.

Turning to `O=S(=O)([O-])[O-].[Co+2]` [CoSO4], the “Residual activity (%)” value in data set [2] came to 75%.

`O=S(=O)([O-])[O-].[Cu+2]` [CuSO4]: the “Residual activity (%)” value in data set [2] is on record as 74%.

In the case of `O=C([O-])CN(CCN(CC(=O)[O-])CC(=O)[O-])CC(=O)[O-].[Na+].[Na+].[Na+].[Na+]` [EDTA, Ethylenediaminetetraacetic acid sodium salt], the “Residual activity (%)” value in data set [1] (pH 7.5) is given as 87%.

For `O=C(O)CF` [FCH2 COONa], the “Residual activity (%)” value in data set [2] came to 107%.

On to `O=S(=O)([O-])[O-].[Fe+2]` [FeSO4], for which, in data set [2], the “Inhibition of enzyme activity (in words)” value is given as “inhibited greatly” and the “Residual activity (%)” value is given as 15%.

For the molecule `NC(=O)CI` [ICH2 CONH2], the “Residual activity (%)” value in data set [2] was determined as 90%.

On to `O=S(=O)([O-])[O-].[Mg+2]` [MgSO4], for which the “Residual activity (%)” value in data set [2] is 86%.

On to `O=S(=O)([O-])[O-].[Mn+2]` [MnSO4], for which the “Residual activity (%)” value in data set [2] is 84%.

With `CC(=O)N[C@H]1[C@H]([C@H](O)[C@H](O)CO)OC(O)(C(=O)O)C[C@@H]1O` (stereo partly drawn) [N-acetylneuraminic acid], in data set [3], the “Action of the enzyme on substrate” value is “hardly acts or does not at all act”.

Consider `[N-]=[N+]=[N-].[Na+]` [NaN3], for which the “Residual activity (%)” value in data set [2] is listed as 103%.

On to `O=S(=O)([O-])[O-].[Ni+2]` [NiSO4], for which, in data set [2], the “Inhibition of enzyme activity (in words)” value is reported as “considerably” and the “Residual activity (%)” value was determined as 64%.

With `O=C(O)c1cc[c]([Hg][Cl])cc1` [PCMB, pChloromercurybenzoate], the “Residual activity (%)” value in data set [2] worked out at 67%.

Regarding `CC(=O)[O-].CC(=O)[O-].[Pb+2]` [Pb(CH3 COO)2], in data set [2], the “Inhibition of enzyme activity (in words)” value is on record as “considerably” and the “Residual activity (%)” value is 42%.

On to `CCCCCCCCCCCCOS(=O)(=O)[O-].[Na+]` [SDS, Sodium dodecylsulfate], for which the “Residual activity (%)” value in data set [2] was determined as 87%.

As to `O=S(=O)([O-])[O-].[Zn+2]` [ZnSO4], in data set [2], the “Inhibition of enzyme activity (in words)” value is “inhibited greatly” and the “Residual activity (%)” value was 2%.

Turning to `c1cnc2c(c1)ccc1cccnc12` [o'-Phenanthroline], in data set [2], the “Residual activity (%)” value is 81%.

For `c1ccc(-c2ccccn2)nc1` [α,α'-Dipyridyl], the “Residual activity (%)” value in data set [2] came out at 106%.

Turning to HgCl2, in data set [2], the “Inhibition of enzyme activity (in words)” value is given as “inhibited greatly” and the “Residual activity (%)” value is given as 17%.

Take “bovine serum albumin: bovine serum albumin added at 1 mg/ml as stabilizer of the enzyme”: the “Effect on enzyme activity on heat treatment” value in data set [4] was “stabilized and moreover slightly enhanced”.
